# Where a SMILES comes first, the peptide text is derived from it. Bridges are numbered along the chain shown (N, C = ends). Roman numbers before positions name the chains, in order. [ ]: non-standard residue; d: D form. The star is where a group is joined. Quinaldoyl(3-OH) = O=C(c1nc2ccccc2cc1O)*; NMeV = CN[C@H](C(=O)O)C(C)C; Pip = O=C(O)[C@@H]1CCCCN1; dDap = NC[C@@H](N)C(=O)O
# Key:
# [1] = Stability in female mouse plasma; type: in vitro ADME; conditions: 37° C., 24 h; for half-life at 1 μM: female, mouse, plasma; for plasma stability (in words): 1 μM
# Description: The stability of exemplary compounds of general Formula I in mouse plasma was evaluated as follows.
# Compounds were incubated at 1 μM in duplicate in female mouse plasma, 250 μL final volume, at 37° C. for 24 h. Aliquots were sampled at 0, 15, 30, 60, 120, 240, 480 and 1440 min. Proteins were precipitated by addition of 5 volumes of cold methanol. After centrifugation 10000×g for 10 min, the residual concentration of compound in the supernatant was measured using an appropriate LC-MS/MS method. The measured concentrations were expressed as a function of time through a one-phase decay exponential regression calculated using GraphPad Prism software (GraphPad Software, Inc.) to generate the plasma half-life for each compound.
# [2] = tested on: tumour cells (at least 4 of a panel of ovarian, breast, lung, pancreatic, placenta, colon cell lines); assay: In vitro cytotoxicity (cell proliferation, CellTiter-Glo), average over tumour cell line panel; type: cell-based; conditions: for pIC50 (average): average pIC50 on all cell lines tested, 5 nights incubation, CellTiter-Glo
# Method in brief: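 Each cell line seeded at ~1000 cells/well and left to adhere overnight, then given a 10-point 1:3 compound titration for 5 nights at 37° C, 5% CO2. Viability read by CellTiter-Glo luminescence; IC50 per line, reported as pIC50 averaged across at least 4 lines.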
# [3] = tested on: herring sperm DNA; assay: DNA melting temperature by differential scanning calorimetry (DSC); type: binding; conditions: for DNA melt (° C.): DSC, herring sperm DNA, DNA melting temperature = 68° C.; for DNA binding (in words): only DSC data in Table 7.1
# Description: (§1) Representative compounds prepared as described in Example 2 were assessed in two complementary DNA-binding assays. Increased melting temperature of herring sperm DNA was measured using differential scanning calorimetry (DSC) and binding kinetics were determined by surface plasmon resonance (SPR) using a short DNA hairpin sequence.
# DSC experiments were conducted as described in Leng, 2003, Nucleic Acids Res., 31 (21): […], using a Nano DSC (TA Instruments, New Castle, DE) and analyzed using the NanoAnalyze™ software package. Herring sperm DNA solution (Invitrogen 15634017, 10 mg/mL) was diluted to 1 mg/mL (1.4 mM base pair) in BPE buffer (6 mM Na2HPO4, 2 mM NaH2PO4, 1 mM Na4EDTA, pH 7.0). Test articles (20 μL, 10 mM in DMSO) were added and allowed reach equilibrium binding (>3 h), any insoluble material was removed by low-speed centrifugation, then samples were heated from 25 to 110° C. at a scan rate of 1° C./min. Melting curves were plotted and melting temperature was determined using NanoAnalyze™.
# [4] = Lipophilicity by experimental HPLC retention time; type: physicochemical; conditions: HPLC retention time as measure of lipophilicity; C18, 10 to 90% CH3CN/H2O with 0.1% FA over 25 min
# Method in brief: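 Reversed-phase HPLC with diode array detection on a Kinetex EVO C18 150×4.6, 2.6 μm column. Gradient 10 to 90% CH3CN/H2O with 0.1% FA over 25 min; retention time serves as the lipophilicity measure.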
# [5] = tested on: biotinylated hairpin DNA sequence 5'-GCATGCTTTTGCATGC; assay: DNA binding by surface plasmon resonance (SPR)
# Description: as §1
# SPR experiments were conducted at 25° C. using a Biacore™ T200 instrument and SA-Biotin chip. PBST Buffer: Gibco PBS, pH 7.4 was modified with Tween®20 (0.01%) and DMSO (2%). Immobilization: a short biotinylated hairpin DNA sequence 5′-GCATGCTTTTGCATGC (5′ biotin) (SEQ ID NO: 1) that contains two known sandramycin binding segments (in bold) was heated to 90° C., cooled to RT then immobilized to 700 RU. Bis-intercalating peptides at concentrations of 5, 2.5, 1.25, 0.625, and 0.312 μM in PBST were flowed over the chip at 20 μL/min with an association time of 600 s followed by dissociation for 600 s. Reference cell values were subtracted and binding constants ka, kd, and KD were determined using Biacore™ T200 Evaluation Software, version 3.0.
SMILES,half-life at 1 μM [1],pIC50 (average) [2],DNA melt (° C.) [3],HPLC [4],plasma stability (in words) [1],DNA binding via SPR (in words) [5],"KD (mM) ([5]; SPR, 25° C., hairpin DNA)",activity in cell assays (in words) [2],DNA binding (in words) [3]
"CC(C)[C@H]1C(=O)NC[C@@H](NC(=O)c2nc3ccccc3cc2O)C(=O)N2CCCC[C@H]2C(=O)NCC(=O)N(C)CC(=O)N(C)[C@@H](C(C)C)C(=O)OC[C@@H](NC(=O)c2nc3ccccc3cc2O)C(=O)N2CCCC[C@H]2C(=O)NCC(=O)N(C)CC(=O)N1C [Compound 14, N,N′-((7R,11S,19aS,26R,30S,38aS)-11,30-diisopropyl-12,15,31,34-tetramethyl-6,10,13,16,19,25,29,32,35,38-decaoxotetratriacontahydro-2H,6H,10H-dipyrido[2,1-b1: 2′,1′-l][1]oxa[4,7,10,13,17,20,23,26,29]nonaazacyclodotriacontine-7,26-diyl)bis(3-hydroxyquinoline-2-carboxamide)]",12.3 h,8.5,97 °C,19.6 min,–,–,–,–,–
"CC[C@H](C)[C@H]1C(=O)NC[C@@H](NC(=O)c2nc3ccccc3cc2O)C(=O)N2CCCC[C@H]2C(=O)NCC(=O)N(C)CC(=O)N(C)[C@@H]([C@@H](C)CC)C(=O)NC[C@@H](NC(=O)c2nc3ccccc3cc2O)C(=O)N2CCCC[C@H]2C(=O)NCC(=O)N(C)CC(=O)N1C [Compound 67, N,N′-((7R,11S,19aS,26R,30S,38aS)-11,30-di((S)-sec-butyl)-12,15,31,34-tetramethyl-6,10,13,16,19,25,29,32,35,38-decaoxohexatriacontahydro-2H,6H-dipyrido[1,2-a:1′,2′-q][1,4,7,10,13,17,20,23,26,29]decaazacyclodotriacontine-7,26-diyl)bis(3-hydroxyquinoline-2-carboxamide)]",–,8.6,91 °C,18.8 min,stability over the course of the experiment,–,–,–,–
"CCN1CC(=O)N(C)[C@@H](C(C)C)C(=O)NC[C@@H](NC(=O)c2nc3ccccc3cc2O)C(=O)N2CCCC[C@H]2C(=O)NCC(=O)N(CC)CC(=O)N(C)[C@@H](C(C)C)C(=O)NC[C@@H](NC(=O)c2nc3ccccc3cc2O)C(=O)N2CCCC[C@H]2C(=O)NCC1=O [Compound 132, N,N′-((7R,11S,19aS,26R,30S,38aS)-15,34-diethyl-11,30-diisopropyl-12,31-dimethyl-6,10,13,16,19,25,29,32,35,38-decaoxohexatriacontahydro-2H,6H-dipyrido[1,2-a:1′,2′-q][1,4,7,10,13,17,20,23,26,29]decaazacyclodotriacontine-7,26-diyl)bis(3-hydroxyquinoline-2-carboxamide)]",–,8.6,–,18.5 min,stability over the course of the experiment,–,–,–,–
"CC(C)[C@H]1C(=O)NC[C@@H](NC(=O)c2nc3ccccc3cc2O)C(=O)N2CCCC[C@H]2C(=O)NCC(=O)NCC(=O)N(C)[C@@H](C(C)C)C(=O)NC[C@@H](NC(=O)c2nc3ccccc3cc2O)C(=O)N2CCCC[C@H]2C(=O)NCC(=O)NCC(=O)N1C [Compound 137, N,N′-((7R,11S,19aS,26R,30S,38aS)-11,30-diisopropyl-12,31-dimethyl-6,10,13,16,19,25,29,32,35,38-decaoxohexatriacontahydro-2H,6H-dipyrido[1,2-a:1′,2′-q][1,4,7,10,13,17,20,23,26,29]decaazacyclodotriacontine-7,26-diyl)bis(3-hydroxyquinoline-2-carboxamide)] (I: {Quinaldoyl(3-OH)}-[dDap][Pip]GG[NMeV] / II: {Quinaldoyl(3-OH)}-[dDap][Pip]GG[NMeV]; amide I:1-II:C, I:C-II:1)",–,Inactive,–,15.1 min,–,did not demonstrate measurable DNA binding,none,inactive in cell assays,–
"CC(C)[C@H]1COC[C@@H](NC(=O)c2nc3ccccc3cc2O)C(=O)N2CCCC[C@H]2C(=O)NCC(=O)N(C)CC(=O)N(C)[C@@H](C(C)C)C(=O)NC[C@@H](NC(=O)c2nc3ccccc3cc2O)C(=O)N2CCCC[C@H]2C(=O)NCC(=O)N(C)CC(=O)N1C [Compound 178, N,N′-((7R,11S,19aS,26R,30S,38aS)-11,30-diisopropyl-12,15,31,34-tetramethyl-6,13,16,19,25,29,32,35,38-nonaoxotetratriacontahydro-2H,6H,10H-dipyrido[2,1-b1: 2′,1′-l][1]oxa[4,7,10,13,17,20,23,26,29]nonaazacyclodotriacontine-7,26-diyl)bis(3-hydroxyquinoline-2-carboxamide)]",–,8.1,92 °C,18.4 min,stability over the course of the experiment,–,–,–,–
"CC(C)[C@H]1COC[C@@H](NC(=O)c2nc3ccccc3cc2O)C(=O)N2CCCC[C@H]2C(=O)NCC(=O)N(C)CC(=O)N(C)[C@@H](C(C)C)C(=O)OC[C@@H](NC(=O)c2nc3ccccc3cc2O)C(=O)N2CCCC[C@H]2C(=O)NCC(=O)N(C)CC(=O)N1C [Compound 203, N,N′-((7R,11S,19aS,26R,30S,38aS)-11,30-diisopropyl-12,15,31,34-tetramethyl-6,10,13,16,19,25,32,35,38-nonaoxodotriacontahydro-2H,6H,10H,25H-dipyrido[2,1-b1: 2′,1′-1][1,17]dioxa[4,7,10,13,20,23,26,29]octaazacyclodotriacontine-7,26-diyl)bis(3-hydroxyquinoline-2-carboxamide)]",–,8.5,96 °C,20.2 min,–,–,–,–,–
"CC(C)[C@H]1C(=O)NC[C@@H](NC(=O)c2nc3ccccc3cc2O)C(=O)N2CCCC[C@H]2C(=O)NCCOCC(=O)N(C)[C@@H](C(C)C)C(=O)NC[C@@H](NC(=O)c2nc3ccccc3cc2O)C(=O)N2CCCC[C@H]2C(=O)NCCOCC(=O)N1C [Compound 404, N,N′-((7R,11S,19aS,26R,30S,38aS)-11,30-diisopropyl-12,31-dimethyl-6,10,13,19,25,29,32,38-octaoxodotriacontahydro-2H,6H,16H,25H-dipyrido[1,2-a1: 1′,2′-k][1,17]dioxa[4,7,11,14,20,23,27,30]octaazacyclodotriacontine-7,26-diyl)bis(3-hydroxyquinoline-2-carboxamide)]",–,Inactive,68^1 °C,16.0 min,–,–,–,–,did not demonstrate measurable DNA binding
"O=C(N[C@@H]1CNC(=O)[C@@H]2CCCCN2C(=O)COCCNC(=O)[C@@H]2CCCCN2C(=O)[C@H](NC(=O)c2nc3ccccc3cc2O)CNC(=O)[C@@H]2CCCCN2C(=O)COCCNC(=O)[C@@H]2CCCCN2C1=O)c1nc2ccccc2cc1O [Compound 409, N,N′-((7R,10aS,22aS,29R,32aS,44aS)-6,10,16,22,28,32,38,44-octaoxotetracontahydro-2H,19H-tetrapyrido[1,2-a1: 1′,2′-d: 1″,2″-k: 1′″,2′″-t][1,17]dioxa[4,7,11,14,20,23,27,30]octaazacyclodotriacontine-7,29-diyl)bis(3-hydroxyquinoline-2-carboxamide)]",–,inactive,68^1 °C,16.1 min,–,–,–,–,did not demonstrate measurable DNA binding
"CCOC(=O)[C@H](CCc1ccccc1)N[C@@H](C)C(=O)N1CCC[C@H]1C(=O)O [Enalapril, reference compound]",2.7 h,–,–,–,–,–,–,–,–

# Source: US20240376154A1, “BIS-INTERCALATING PEPTIDES, CONJUGATES AND METHODS OF USE” (ZYMEWORKS BC INC., priority 2023, published 2024)
